Test results published in patent US20030231978A1, “Indoor air quality and antiseptic composition for use therein” (priority 2002, published 2003).
“Also recorded” adds a separate entry of the source. Where two headings read alike, the source gives them in different places.

How the values were obtained:
[1] = test system: E. coli; conditions: cited from earlier work
[2] = Potency decay / breakdown of terpenes in presence of oxygen; format: physicochemical; conditions: 500 ppm solution
Excerpt: Terpenes will break down in the presence of oxygen. Citral, for example, is an aldehyde and will decay (oxygenate) over a period of days.

[3] = test system: human erythrocytes
[4] = Solution and suspension levels of terpenes in water
Excerpt: The terpene and water were blended in a household blender for 30 seconds.
Examples of these levels are as follows.

[5] = test system: Third stage (L3) Dirofilaria immitis larvae; assay: In-vitro larvacidal effect; format: cell-based
Description: Third stage (L3) Dirofilaria immitis larvae were suspended at a concentration of 85 larvae/ml. Larvae were deposited on plates with wells containing b-ionone at a concentration of 5 μM, 50 μM, and 750 μM, Tween® 80, and control media.
Plates were incubated at 37° C., 95% relative humidity (RH), and 5% CO2 for 6 days.
After incubation all wells were evaluated for appearance, motility, and molting to stage four (L4) at 24, 48, 72 hours, and 6 days.

[6] = test system: Mycoplasma pneumoniae; assay: Effectiveness against Mycoplasma pneumoniae (color change of SP4 medium); format: cell-based; conditions: 40 hours treatment
Description: Terpene beta-ionone or L-carvone was first mixed well with Tween® 80 to have a final Tween® 80 concentration of 5 vol %. This mixture was then used to make concentrations of 2500 ppm in sterile phosphate buffer saline (PBS) by blending the mixture in PBS for 40 seconds. This 2500 ppm solution was then diluted to 500 ppm, 250 ppm, and 125 ppm with PBS.
PBS containing 25 ppm Tween® 80 or PBS alone was used to treat cells suspension as controls.
A log phase (2-3 -day old) culture of Mycoplasma pneumoniae was mixed with each of the above three concentrations of terpene at 1:1 (volume) ratio (in this case, I mL of cell suspension was added to 1 mL of terpene).
The culture and terpene mixture was then incubated at 37° C. for 40 hours. After 40 hours of treatment, 10-fold serial dilution was performed to 10 (−10) by first taking 0.1 mL of the treated culture suspension was added into 0.9 mL of fresh SP4 (Whitcomb (1983); SP4 media is commercially available (Remel, Lenexa, Kans., USA)). All the tubes were then incubated at 37° C., and a color change of the medium was used for the indication of the cells that either were killed or survived from the treatment. Color change was from red to yellow because Mycoplasma pneumoniae produces acid during its growth.
All the treatments were performed in duplicate.

[7] = test system: H. pylori; conditions: cited from earlier work
[8] = in water without surfactant, high-shear blending

Question: For `CC(C)=CCCC(C)=CC=O` [Citral, 3,7-dimethyl-2,6-octadien-1-al], which “Citral in growth media that reduced the concentration of E. coli” value [1] is on record?
Answer: The value was “more than 0.01%”.

Question: And the “Citral in growth media with bactericidal effect” value [1]?
Answer: The value was 0.08%.

Question: What about the “Time to lose half its potency” value [2] of the same compound?
Answer: The value was 2-3 weeks.

Question: And the “Concentration that will lyse human erythrocytes” value [3]?
Answer: The value was “about 1000 ppm”.

Question: And the “Level up to which a stable suspension of citral can be formed” value [4]?
Answer: Its value is “up to 2500 ppm”.

Question: What about the “Level up to which citral forms a solution in water” value ([4]; true solution, high shear mixing, no surfactant) of the same compound?
Answer: The value was “up to 1000 ppm”.

Question: For `CC(=O)/C=C/C1=C(C)CCCC1(C)C` [b-ionone], which “Survival, motility and molting of larvae” value ([5]; 5 μM) is on record?
Answer: The value was “no effect on the larvae”.

Question: What about the “Survival, motility and molting of larvae” value ([5]; 50 μM, 6 day assay) of the same compound?
Answer: Its value is “decreased survivability, motility, and molting; also recorded: Most larvae were dead by 6 days and none molted”.

Question: And the “Survival, motility and molting of larvae” value ([5]; 750 μM)?
Answer: Its value is “all larvae were dead or moribund within 24 hours”.

Question: And the “Solution levels for various terpenes (maximum level solubilized)” value (from here on “Solution levels for various terpenes”) [4, 8]?
Answer: The value was 500 ppm.

Question: What about the “Color change of the first tube three days after the 10-fold dilution (killing effect)” value ([6]; 62.5 ppm, 125 ppm and 250 ppm) of the same compound?
Answer: The value was “did not change color at all indicating a killing effect”.

Question: And the “Color change of tubes 6 days after the 10-fold dilution” value ([6]; 62.5 ppm)?
Answer: The value was “only the first tube of 62.5 ppm beta-ionone changed color”.

Question: And the “Killing of cells, 6 days after the 10-fold dilution” value ([6]; 125 and 250 ppm)?
Answer: The value was “may have completely killed all cells in 40 hours”.

Question: For `C=C(C)C1CC=C(C)C(=O)C1` (stereo not shown) [Carvone], which “Solution levels for various terpenes” value [4, 8] is on record?
Answer: Its value is 500 ppm.

Question: With Terpeniol as the compound, how does the “Solution levels for various terpenes” value [4, 8] read?
Answer: Its value is 500 ppm.

Question: For `CC(C)=CCC/C(C)=C/CO` [Geraniol], which “Concentration that inhibited the growth of H. pylori in vitro” value [7] is on record?
Answer: The value was 2 mg/L.

Question: And the “Solution levels for various terpenes” value [4]?
Answer: Its value is 500 ppm.

Question: With L-carvone as the compound, how does the “Color change of the first tube three days after the 10-fold dilution (killing effect)” value ([6]; 62.5 ppm, 125 ppm and 250 ppm) read?
Answer: Its value is “no killing effects”.

Question: And the “Color change of the second and third tube 6 days after the 10-fold dilution” value ([6]; 62.5 ppm, 125 ppm and 250 ppm)?
Answer: Its value is “changed color”.
